# Literature values as cited in PubChem BioAssay AID1259409 (Chemical Carcinogenesis Research Information System (CCRIS), 2018).
# Test system: rodent chemically induced tumor inhibition, incidence and multiplicity
# Experiment: CCRIS tumor inhibitor studies
# Conditions: Dose [Inhibitor]: 0, Promoter: NONE USED
compound,measurement,setting,value
COc1ccc(-c2coc3cc(O)cc(O)c3c2=O)cc1,"tumour outcome (control, treated, inhibition, significance)","Carcinogen: BENZO[A]PYRENE, 50-32-8, 0.125 MG IN 0.1 ML DMSO 3/WK FOR 6 WK AFTER WEANING (STUDY DURATION: 9 WK), Route [Inhibitor]: INTRAPERITONEAL, Species: MOUSE, Strain/Sex: SWISS WEBSTER/MALE, FEMALE, Target Tissue: Type of Lesion: LUNG: ADENOMA, Dose [Carcinogen]: 0.5 MG IN AQUEOUS GELATIN WITHIN 24 HRS AFTER BIRTH","20/35 (57%), 2/16 (13%), 77%, p<0.01"
same,"tumour outcome (control, treated, inhibition, significance)","Carcinogen: BENZO[A]PYRENE, 50-32-8, 0.125 MG IN 0.1 ML DMSO 3/WK FOR 6 WK AFTER WEANING (STUDY DURATION: 9 WK), Route [Inhibitor]: INTRAPERITONEAL, Species: MOUSE, Strain/Sex: SWISS/FEMALE, Target Tissue: Type of Lesion: LUNG: ADENOMA, Dose [Carcinogen]: 0.5 MG IN 1% AQUEOUS GELATIN TO 24 HR OLD MICE ONCE","11/19 (58%), 2/16 (13%), 78%, p<0.01"
same,"tumour outcome (control, treated, inhibition, significance)","Carcinogen: BENZO[A]PYRENE, 50-32-8, 500 MG/KG IN 0.1 ML DMSO 2 D PRIOR TO EACH CARCINOGEN DOSE 1/WK FOR 4 WK (STUDY DURATION: 30 WK), Route [Inhibitor]: GAVAGE, Species: MOUSE, Strain/Sex: SWISS/FEMALE, Target Tissue: Type of Lesion: FORESTOMACH: CARCINOMA, Dose [Carcinogen]: 3 MG IN 0.2 ML CORN OIL 1/WK FOR 4 WK","13/26 (50%), 4/24 (17%), 66%, p<0.02"
same,"tumour outcome (control, treated, inhibition, significance)","Carcinogen: BENZO[A]PYRENE, 50-32-8, 500 MG/KG IN 0.1 ML DMSO 2 D PRIOR TO EACH CARCINOGEN DOSE 1/WK FOR 4 WK (STUDY DURATION: 30 WK), Route [Inhibitor]: GAVAGE, Species: MOUSE, Strain/Sex: SWISS/FEMALE, Target Tissue: Type of Lesion: FORESTOMACH: PAPILLOMA, Dose [Carcinogen]: 3 MG IN 0.2 ML CORN OIL 1/WK FOR 4 WK","25/26 (96%), 21/24 (88%), 8%, not calculated"
same,"tumour outcome (control, treated, inhibition, significance)","Carcinogen: BENZO[A]PYRENE, 50-32-8, 500 MG/KG IN 0.1 ML DMSO 2 D PRIOR TO EACH CARCINOGEN DOSE 1/WK FOR 4 WK (STUDY DURATION: 30 WK), Route [Inhibitor]: GAVAGE, Species: MOUSE, Strain/Sex: SWISS/FEMALE, Target Tissue: Type of Lesion: LUNG: ADENOMA, Dose [Carcinogen]: 3 MG IN 0.2 ML CORN OIL 1/WK FOR 4/WK","24/26 (92%), 20/24 (83%), 10%, not calculated"
same,"tumour outcome (control, treated, inhibition, significance)","Carcinogen: N-METHYL-N-NITROSOUREA, 684-93-5, 10 MG/KG IN DIET FOR DURATION OF STUDY BEGINNING POST CARCINOGEN DOSE (STUDY DURATION: 18 WK), Route [Inhibitor]: ORAL, Species: RAT, Strain/Sex: SPRAGUE-DAWLEY/FEMALE, Target Tissue: Type of Lesion: MAMMARY GLAND: TUMOR, Dose [Carcinogen]: 40 MG/KG BW ONCE","16/20 (80%), 11/19 (58%), 28%, not calculated"
same,"tumour outcome (control, treated, inhibition, significance)","Carcinogen: N-METHYL-N-NITROSOUREA, 684-93-5, 50 MG/KG IN DIET FOR DURATION OF STUDY BEGINNING POST CARCINOGEN DOSE (STUDY DURATION: 18 WK), Route [Inhibitor]: ORAL, Species: RAT, Strain/Sex: SPRAGUE-DAWLEY/FEMALE, Target Tissue: Type of Lesion: MAMMARY GLAND: TUMOR, Dose [Carcinogen]: 40 MG/KG BW ONCE","16/20 (80%), 6/19 (32%), 60%, p<0.01"
